Measured values taken from US11293024B2, “Antisense antibacterial compounds and methods” (priority 2014, dated 2022).

Test system: P. aeruginosa PAO1 biofilm
Experiment: Biofilm prevention in MBEC plate (crystal violet)
Format: cell-based, Pseudomonas aeruginosa
Conditions: 5 μM PPMO, 2 μg/mL PMBN, MHII, 20 hours; one-way ANOVA p<0.0001
Method: P. aeruginosa PAO1 (5×10^5 cfu/mL) was grown in MHII media in an MBEC plate for 20 hours either alone or in the presence of 5 μM of the indicated PPMOs, PMBN alone, (RXR)4, or a scrambled PPMO. All conditions contained 2 μg/mL of PMBN unless indicated otherwise. Pegs were processed for crystal violet or visualized by microscopy at 20 hours. […] FIGS. 6B-6D: Spinning Disk confocal microscopy images of 20 hour biofilm treated with (FIG. 6B) No PPMO, (FIG. 6C) 5 μM Scr PPMO #41, (FIG. 6D) 5 μM RpsJ PPMO #14. PAO1 GFP is shown in green and biofilm is shown in red. The biofilm is stained with 200 μg/mL of Concanavalin A, Alexafluor 647 conjugate.
Pseudomonas aeruginosa Biofilm Prevention in MBEC Plate Protocol
• 1. 10 mL of MH is inoculated with a single colony and incubated at 37° C. and ˜250 rpm for about 5 hours. • 2. The sample is centrifuged for 10 minutes at ˜4000 rpm at 4° C., the supernatant is decanted and the pellet resuspended in 10 mL of 150 mM NaCl or PBS. This step is repeated to wash the pellet 3 times. • 3. The sample is resuspended in 10 mL 150 mM NaCl or PBS. • 4. The OD600 of the sample is taken and cfu/mL is calculated. (OD600 usually between 0.65-0.80). • 5. A Bacterial Working Solution (BWS) is made by inoculating 10 mL of MH to 5×10^5 cfu/mL final concentration. • 6. 2 μL/mL of 1 mg/mL stock PMBN is added to the BWS and vortexed 3 times. • 7. 1 mL of BWS is pipetted into each separate Eppendorf tube for each condition that is tested. • 8. An appropriate amount of PPMO is added to each Eppendorf tube and vortexed 3 times. • 9. Outside wells are filled with fresh MH, NaCl, or PBS to keep the outer pegs from drying out. • 10. One column of the MBEC plate is filled with 150 μL per well from each Eppendorf tube (one condition per column). • 11. Pegs are placed into the MBEC plate and the edges covered with a breathable membrane. • 12. The MBEC plate is incubated for 18-20 hours at 37° C. and 110 rpm. Day 2:
1. […] The final OD570 of the 10× dilution of solution should be approximately 0.500 absorbance. […]
2. OD reading: The OD570 for the 96-well plate from step 1e is determined. […]

PPMO #14: RpsJ PMO GCATTTGACCT, 5′ TEG, 3′ (RXR)4XB CPP
prevention of biofilm (crystal violet): statistically significant prevention of biofilm
